# Molecular target: HEK293 cells with stable expression of the GRIN1 gene and tetracycline-inducible expression of the GRIN2B gene (NMDA receptor, NR2B) (Homo sapiens, UniProt Q13224)
# Assay: Fluo-8 Ca2+ flux assay: reversal of Ro 25-6981-mediated suppression of the Ca2+ response to co-agonist (glutamate/glycine); note: test concentration or dose not given here
# Type: cell-based
# Conditions: reversal of the Ro 25-6981 suppression of the Ca2+ response to co-agonist (glutamate/glycine)
# Chain of HEK293 cells with stable expression of the GRIN1 gene and tetracycline-inducible expression of the GRIN2B gene (NMDA receptor, NR2B) (Q13224 27-1484, other chains not shown): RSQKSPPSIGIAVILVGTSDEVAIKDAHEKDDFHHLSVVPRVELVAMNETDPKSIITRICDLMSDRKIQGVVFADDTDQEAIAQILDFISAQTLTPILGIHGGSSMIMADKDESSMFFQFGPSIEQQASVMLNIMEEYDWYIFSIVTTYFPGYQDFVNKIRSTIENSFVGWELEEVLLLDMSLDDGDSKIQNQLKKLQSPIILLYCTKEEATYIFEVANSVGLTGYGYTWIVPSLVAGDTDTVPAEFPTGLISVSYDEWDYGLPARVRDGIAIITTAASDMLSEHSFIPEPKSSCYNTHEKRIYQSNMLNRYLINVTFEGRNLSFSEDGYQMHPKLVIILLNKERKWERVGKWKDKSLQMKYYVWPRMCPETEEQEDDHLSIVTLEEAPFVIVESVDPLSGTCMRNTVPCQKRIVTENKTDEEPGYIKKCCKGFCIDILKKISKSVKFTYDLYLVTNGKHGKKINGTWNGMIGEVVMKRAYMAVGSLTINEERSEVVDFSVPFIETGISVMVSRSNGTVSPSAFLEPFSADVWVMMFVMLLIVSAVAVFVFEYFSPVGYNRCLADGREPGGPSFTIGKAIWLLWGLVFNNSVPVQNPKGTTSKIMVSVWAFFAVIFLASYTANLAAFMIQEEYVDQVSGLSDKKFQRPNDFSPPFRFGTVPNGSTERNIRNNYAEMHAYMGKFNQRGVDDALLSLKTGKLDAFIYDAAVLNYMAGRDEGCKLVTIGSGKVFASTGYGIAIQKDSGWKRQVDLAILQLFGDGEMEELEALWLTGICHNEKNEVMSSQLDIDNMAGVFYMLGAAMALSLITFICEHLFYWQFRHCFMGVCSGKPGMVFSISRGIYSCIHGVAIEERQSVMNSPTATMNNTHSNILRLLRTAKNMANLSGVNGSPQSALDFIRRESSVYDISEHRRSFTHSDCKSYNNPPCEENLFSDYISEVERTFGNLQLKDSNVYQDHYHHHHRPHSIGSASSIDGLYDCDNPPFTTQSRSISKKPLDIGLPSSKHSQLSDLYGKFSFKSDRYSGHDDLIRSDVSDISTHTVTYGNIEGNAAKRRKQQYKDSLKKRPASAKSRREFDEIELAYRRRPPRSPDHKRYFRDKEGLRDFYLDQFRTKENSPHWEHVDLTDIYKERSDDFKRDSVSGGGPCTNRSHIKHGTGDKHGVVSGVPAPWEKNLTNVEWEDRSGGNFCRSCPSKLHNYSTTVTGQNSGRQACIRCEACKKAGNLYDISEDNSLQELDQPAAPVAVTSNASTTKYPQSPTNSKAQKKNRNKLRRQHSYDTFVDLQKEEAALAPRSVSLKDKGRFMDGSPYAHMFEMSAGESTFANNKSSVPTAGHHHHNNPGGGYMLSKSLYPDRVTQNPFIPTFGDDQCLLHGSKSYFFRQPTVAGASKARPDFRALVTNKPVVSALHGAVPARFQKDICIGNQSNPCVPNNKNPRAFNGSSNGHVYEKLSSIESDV
row,Structure (SMILES),Response Recovered (%)
1,"O=C(Cn1ccc2[nH]cc(-c3ccc(Cl)c(C(F)(F)F)c3)c2c1=O)N1CCCC1 [Example 198, 3-(4-chloro-3-(trifluoromethyl)phenyl)-5-(2-oxo-2-(pyrrolidin-1-yl)ethyl)-1H-pyrrolo[3,2-c]pyridin-4(5H)-one]",104
2,"C[Si](C)(C)CCOCn1cc(-c2ccc(Cl)c(C(F)(F)F)c2)c2c(=O)n(CC(=O)N3CCC(F)C3)ccc21 (centres unmarked) [Example 199, 3-(4-chloro-3-(trifluoromethyl)phenyl)-5-(2-(3-fluoropyrrolidin-1-yl)-2-oxoethyl)-1-((2-(trimethylsilyl)ethoxy)methyl)-1H-pyrrolo[3,2-c]pyridin-4(5H)-one]",47
3,"C[Si](C)(C)CCOCn1cc(-c2ccc(Cl)c(C(F)(F)F)c2)c2c(=O)n(CC(=O)N3CC(F)(F)C3)ccc21 [Example 200, 3-(4-chloro-3-(trifluoromethyl)phenyl)-5-(2-(3,3-difluoroazetidin-1-yl)-2-oxoethyl)-1-((2-(trimethylsilyl)ethoxy)methyl)-1H-pyrrolo[3,2-c]pyridin-4(5H)-one]",18
4,"C[Si](C)(C)CCOCn1cc(-c2ccc(Cl)c(F)c2)c2c(=O)n(CC(=O)N3CCCC3)ccc21 [Example 201, 3-(4-chloro-3-fluorophenyl)-5-(2-oxo-2-(pyrrolidin-1-yl)ethyl)-1-((2-(trimethylsilyl)ethoxy)methyl)-1H-pyrrolo[3,2-c]pyridin-4(5H)-one]",62
5,"C[Si](C)(C)CCOCn1cc(-c2ccc(Cl)c(F)c2)c2c(=O)n(CC(=O)N3CCC(F)C3)ccc21 (centres unmarked) [Example 202, 3-(4-chloro-3-fluorophenyl)-5-(2-(3-fluoropyrrolidin-1-yl)-2-oxoethyl)-1-((2-(trimethylsilyl)ethoxy)methyl)-1H-pyrrolo[3,2-c]pyridin-4(5H)-one]",32
6,"O=C(Cn1ccc2[nH]cc(-c3ccc(Cl)c(C(F)(F)F)c3)c2c1=O)N1CCC(F)C1 (centres unmarked) [Example 203, 3-(4-chloro-3-(trifluoromethyl)phenyl)-5-(2-(3-fluoropyrrolidin-1-yl)-2-oxoethyl)-1H-pyrrolo[3,2-c]pyridin-4(5H)-one]",42
7,"O=C(Cn1ccc2[nH]cc(-c3ccc(Cl)c(F)c3)c2c1=O)N1CCC(F)C1 (centres unmarked) [Example 204, 3-(4-chloro-3-fluorophenyl)-5-(2-(3-fluoropyrrolidin-1-yl)-2-oxoethyl)-1H-pyrrolo[3,2-c]pyridin-4(5H)-one]",47
8,"C[Si](C)(C)CCOCn1cc(-c2ccc(F)c(Cl)c2)c2c(=O)n(CC(=O)N3CCCC3)ccc21 [Example 205, 3-(3-chloro-4-fluorophenyl)-5-(2-oxo-2-(pyrrolidin-1-yl)ethyl)-1-((2-(trimethylsilyl)ethoxy)methyl)-1H-pyrrolo[3,2-c]pyridin-4(5H)-one]",59
9,"C[Si](C)(C)CCOCn1cc(-c2ccc(F)c(Cl)c2)c2c(=O)n(CC(=O)N3CCC(F)C3)ccc21 (centres unmarked) [Example 206, 3-(3-chloro-4-fluorophenyl)-5-(2-(3-fluoropyrrolidin-1-yl)-2-oxoethyl)-1-((2-(trimethylsilyl)ethoxy)methyl)-1H-pyrrolo[3,2-c]pyridin-4(5H)-one]",107
10,"C[Si](C)(C)CCOCn1cc(-c2ccc(F)c(Cl)c2)c2c(=O)n(CC(=O)N3CC(F)(F)C3)ccc21 [Example 207, 3-(3-chloro-4-fluorophenyl)-5-(2-(3,3-difluoroazetidin-1-yl)-2-oxoethyl)-1-((2-(trimethylsilyl)ethoxy)methyl)-1H-pyrrolo[3,2-c]pyndin-4(5H)-one]",69
11,"O=C(Cn1ccc2[nH]cc(-c3ccc(F)c(Cl)c3)c2c1=O)N1CCCC1 [Example 208, 3-(3-chloro-4-fluorophenyl)-5-(2-oxo-2-(pyrrolidin-1-yl)ethyl)-1H-pyrrolo[3,2-c]pyridin-4(5H)-one]",60
12,"O=C(Cn1ccc2[nH]cc(-c3ccc(F)c(Cl)c3)c2c1=O)N1CCC(F)C1 (centres unmarked) [Example 209, 3-(3-chloro-4-fluorophenyl)-5-(2-(3-fluoropyrrolidin-1-yl)-2-oxoethyl)-1H-pyrrolo[3,2-c]pyridin-4(5H)-one]",53
13,"O=C(Cn1ccc2[nH]cc(-c3cnc(Cl)c(Cl)c3)c2c1=O)N1CC(F)C(F)C1 (centres unmarked) [Example 210, 3-(5,6-dichloropyridin-3-yl)-5-(2-(3,4-difluoropyrrolidin-1-yl)-2-oxoethyl)-1H-pyrrolo[3,2-c]pyridin-4(5H)-one]",26
14,"O=C(Cn1ccc2[nH]cc(-c3ccc(Cl)c(F)c3)c2c1=O)N1CCCC1 [Example 211, 3-(4-chloro-3-fluorophenyl)-5-(2-oxo-2-(pyrrolidin-1-yl)ethyl)-1H-pyrrolo[3,2-c]pyridin-4(5H)-one]",55
15,"O=C(Cn1ccc2[nH]cc(-c3ccc(Cl)c(C(F)(F)F)c3)c2c1=O)N1CC(F)(F)C1 [Example 212, 3-(4-chloro-3-(trifluoromethyl)phenyl)-5-(2-(3,3-difluoroazetidin-1-yl)-2-oxoethyl)-1H-pyrrolo[3,2-c]pyridin-4(5H)-one]",107
16,"O=C(Cn1ccc2[nH]cc(-c3ccc(Cl)c(F)c3)c2c1=O)N1CC(F)(F)C1 [Example 213, 3-(4-chloro-3-fluorophenyl)-5-(2-(3,3-difluoroazetidin-1-yl)-2-oxoethyl)-1H-pyrrolo[3,2-c]pyridin-4(5H)-one]",109
17,"O=C(Cn1ccc2[nH]cc(-c3ccc(Cl)c(Cl)c3)c2c1=O)N1CCC(F)C1 (centres unmarked) [Example 214, 3-(3,4-dichlorophenyl)-5-(2-(3-fluoropyrrolidin-1-yl)-2-oxoethyl)-1H-pyrrolo[3,2-c]pyridin-4(5H)-one]",84
18,"O=C(Cn1ccc2[nH]cc(-c3ccc(F)c(C(F)(F)F)c3)c2c1=O)N1CCC(F)C1 (centres unmarked) [Example 215, 3-(4-fluoro-3-(trifluoromethyl)phenyl)-5-(2-(3-fluoropyrrolidin-1-yl)-2-oxoethyl)-1H-pyrrolo[3,2-c]pyridin-4(5H)-one]",89
19,"O=C(Cn1ccc2[nH]cc(-c3ccc(F)c(C(F)(F)F)c3)c2c1=O)N1CC(F)(F)C1 [Example 216, 5-(2-(3,3-difluoroazetidin-1-yl)-2-oxoethyl)-3-(4-fluoro-3-(trifluoromethyl)phenyl)-1H-pyrrolo[3,2-c]pyridin-4(5H)-one]",101

# The remaining lines, values ahead:
row,Response Recovered (%),Structure (SMILES)
1,70,"O=C(Cn1ccc2[nH]cc(-c3ccc(Cl)c(Cl)c3)c2c1=O)N1CCCC1 [Example 217, 3-(3,4-dichlorophenyl)-5-(2-oxo-2-(pyrrolidin-1-yl)ethyl)-1H-pyrrolo[3,2-c]pyridin-4(5H)-one]"
2,71,"O=C(Cn1ccc2[nH]cc(-c3ccc(F)c(Cl)c3)c2c1=O)N1CC(F)(F)C1 [Example 218, 3-(3-chloro-4-fluorophenyl)-5-(2-(3,3-difluoroazetidin-1-yl)-2-oxoethyl)-1H-pyrrolo[3,2-c]pyridin-4(5H)-one]"
3,91,"O=C(Cn1ccc2[nH]cc(-c3ccc(F)c(C(F)(F)F)c3)c2c1=O)N1CCCC1 [Example 219, 3-(4-fluoro-3-(trifluoromethyl)phenyl)-5-(2-oxo-2-(pyrrolidin-1-yl)ethyl)-1H-pyrrolo[3,2-c]pyridin-4(5H)-one]"
4,120,"O=C(Cn1ccc2[nH]cc(-c3ccc(F)c(C(F)(F)F)c3)c2c1=O)N1CC(F)C(F)C1 (centres unmarked) [Example 220, 5-(2-(3,4-difluoropyrrolidin-1-yl)-2-oxoethyl)-3-(4-fluoro-3-(trifluoromethyl)phenyl)-1H-pyrrolo[3,2-c]pyridin-4(5H)-one]"
5,43,"O=C(Cn1ccc2[nH]cc(-c3cnc(Cl)c(C(F)(F)F)c3)c2c1=O)N1CC(F)C(F)C1 (centres unmarked) [Example 221, 3-(6-chloro-5-(trifluoromethyl)pyridin-3-yl)-5-(2-(3,4-difluoropyrrolidin-1-yl)-2-oxoethyl)-1H-pyrrolo[3,2-c]pyridin-4(5H)-one]"
6,86,"CC1(F)CN(C(=O)Cn2ccc3[nH]cc(-c4ccc(F)c(C(F)(F)F)c4)c3c2=O)C1 [Example 222, 3-(4-fluoro-3-(trifluoromethyl)phenyl)-5-(2-(3-fluoro-3-methylazetidin-1-yl)-2-oxoethyl)-1H-pyrrolo[3,2-c]pyridin-4(5H)-one]"
7,109,"O=C(Cn1ccc2c(c(-c3ccc(Cl)c(C(F)(F)F)c3)cn2-c2ccccn2)c1=O)N1CCC(F)C1 (centres unmarked) [Example 224, 3-(4-chloro-3-(trifluoromethyl)phenyl)-5-(2-(3-fluoropyrrolidin-1-yl)-2-oxoethyl)-1-(pyridin-2-yl)-1H-pyrrolo[3,2-c]pyridin-4(5H)-one]"
8,83,"O=C(Cn1ccc2c(c(-c3ccc(F)c(C(F)(F)F)c3)cn2-c2ccccn2)c1=O)N1CCC(F)C1 (centres unmarked) [Example 225, 3-(4-fluoro-3-(trifluoromethyl)phenyl)-5-(2-(3-fluoropyrrolidin-1-yl)-2-oxoethyl)-1-(pyridin-2-yl)-1H-pyrrolo[3,2-c]pyridin-4(5H)-one]"
9,39,"O=C(Cn1ccc2c(c(-c3ccc(F)c(Cl)c3)cn2-c2ccccn2)c1=O)N1CCC(F)C1 (centres unmarked) [Example 228, 3-(4-chloro-4-fluorophenyl)-5-(2-(3-fluoropyrrolidin-1-yl)-2-oxoethyl)-1-(pyridin-2-yl)-1H-pyrrolo[3,2-c]pyridin-4(5H)-one]"
10,78,"O=C(Cn1ccc2c(c(-c3ccc(Cl)c(Cl)c3)cn2-c2ccccn2)c1=O)N1CCC(F)C1 (centres unmarked) [Example 229, 3-(3,4-dichlorophenyl)-5-(2-(3-fluoropyrrolidin-1-yl)-2-oxoethyl)-1-(pyridin-2-yl)-1H-pyrrolo[3,2-c]pyridin-4(5H)-one]"
